How the values were obtained:
[1] = test system: Smad2/Smad3 phosphorylation; test: Phospho-Smad2/3 Inhibition Assay (western blot), Panc-1; assay type: cell-based, human; conditions: at 10 μM, Panc-1 pancreatic cancer cell line; starred symbols = activation
How it was run: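 Western blotting of lysates (15-50 μg protein) read phosphorylation of Smad2 Ser465/467 and Smad3 Ser423/425. Before lysis, Panc-1 cells got 1 h of 10 ng/ml TGF-b1 following 3 h compound exposure at 37° C (10 μM final, or serial dilutions for IC50, 0.3% DMSO) after overnight 0.5% FBS starvation.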

Erk1/2 phosphorylation = test: Erk1/2 Phosphorylation Assay (western blot), Panc-1; assay type: cell-based, human; conditions: at 10 μM, * = activation
How it was run: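 Phospho-Erk1/2 (Thr202/Tyr204) was detected by western blot in lysates of Panc-1 cells (KRas G12D). These had 6 h, 37° C exposure to 10 μM compound or a dilution series for IC50, in 0.3% DMSO. Cells were either starved overnight in 0.5% FBS with a 15-min 1.5 ng/ml EGF pulse, or kept unstimulated in 10% FBS.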

Row | Structure (SMILES) | % inh of Smad2/3 phosphorylation in Panc-1 [1] | % inh of Erk1/2 phosphorylation in Panc-1 (Erk1/2 phosphorylation)
1 | COc1cc(Nc2nc(-c3nccn3C)nn3cc(-c4ccn(C)n4)c(C)c23)ncc1C1CC1 [Compound 238, N-(5-Cyclopropyl-4-methoxypyridin-2-yl)-5-methyl-2-(1-methyl-1H-imidazol-2-yl)-6-(1-methyl-1H-pyrazol-3-yl)pyrrolo[2,1-f][1,2,4]triazin-4-amine] | 0 (0 = 0% inhibition) | A (1-25% inhibition)
2 | Cc1c(-c2ccn(C)n2)cn2nc(-c3nccn3C)nc(Nc3ccc(C(C)(C)O)cn3)c12 [Compound 241, 2-(6-((5-Methyl-2-(1-methyl-1H-imidazol-2-yl)-6-(1-methyl-1H-pyrazol-3-yl)pyrrolo[2,1-f][1,2,4]triazin-4-yl)amino)pyridin-3-yl)propan-2-ol] | C* (C* = 46-75% activation) | D* (85-100% activation)
3 | COCCNC(=O)c1c(-c2ccn(C)n2)cn2nc(-c3nccn3C)nc(Nc3cc(OC)ccn3)c12 [Compound 176, N-(2-Methoxyethyl)-4-((4-methoxypyridin-2-yl)amino)-2-(1-methyl-1H-imidazol-2-yl)-6-(1-methyl-1H-pyrazol-3-yl)pyrrolo[2,1-f][1,2,4]triazine-5-carboxamide] | B (B = 26-45% inhibition) | D* (85-100% activation)
4 | Cc1c(-c2ccn(C)n2)cn2nc(-c3nccn3C)nc(N)c12 [Compound 211, 5-Methyl-2-(1-methyl-1H-imidazol-2-yl)-6-(1-methyl-1H-pyrazol-3-yl)pyrrolo[2,1-f][1,2,4]triazin-4-amine] | D (D = 76-100% inhibition) | A* (1-25% activation)
5 | Cc1c(-c2ccn(C)n2)cn2nc(-c3nccn3C)nc(Nc3cc(N4CCOCC4)ccn3)c12 [Compound 222, 5-Methyl-2-(1-methyl-1H-imidazol-2-yl)-6-(1-methyl-1H-pyrazol-3-yl)-N-(4-morpholinopyridin-2-yl)pyrrolo[2,1-f][1,2,4]triazin-4-amine] | A* (A* = 1-25% activation) | A* (1-25% activation)
6 | CO[C@H]1C[C@@H](Nc2nc(-c3nccn3C)nn3cc(-c4ccncc4)c(-c4ccccc4)c23)C1 [Compound 198, N-((1s,3s)-3-Methoxycyclobutyl)-2-(1-methyl-1H-imidazol-2-yl)-5-phenyl-6-(pyridin-4-yl)pyrrolo[2,1-f][1,2,4]triazin-4-amine] | A (A = 1-25% inhibition) | D* (85-100% activation)
7 | Cc1c(-c2ccn(C)n2)cn2nc(-c3nccn3C)nc(Nc3cc(OCCNC(=O)CCCC[C@H]4SC[C@H]5NC(=O)N[C@H]54)ccn3)c12 [Compound 186, N-(2-((2-((5-Methyl-2-(1-methyl-1H-imidazol-2-yl)-6-(1-methyl-1H-pyrazol-3-yl)pyrrolo[2,1-f][1,2,4]triazin-4-yl)amino)pyridin-4-yl)oxy)ethyl)-5-((3aR,4R,6aS)-2-oxohexahydro-1H-thieno[3,4-d]imidazol-4-yl)pentanamide] | D* (D* = 76-100% activation) | A* (1-25% activation)
8 | CO[C@H]1C[C@H](Nc2nc(-c3nccn3C)nn3cc(-c4ccccc4)c(-c4ccccc4)c23)C1 [Compound 203, N-((1r,3r)-3-Methoxycyclobutyl)-2-(1-methyl-1H-imidazol-2-yl)-5,6-diphenylpyrrolo[2,1-f][1,2,4]triazin-4-amine] | D (D = 76-100% inhibition) | D (85-100% inhibition)
9 | Cc1c(-c2ccn(C)n2)cn2nc(-c3nccn3C)nc(Nc3cc(C(C)(C)O)ccn3)c12 [Compound 240, 2-(2-((5-Methyl-2-(1-methyl-1H-imidazol-2-yl)-6-(1-methyl-1H-pyrazol-3-yl)pyrrolo[2,1-f][1,2,4]triazin-4-yl)amino)pyridin-4-yl)propan-2-ol] | 0 (0 = 0% inhibition) | A* (1-25% activation)
10 | Cc1c(-c2ccn(C)n2)cn2nc(-c3nccn3C)nc(Nc3ccc(OC(F)F)cn3)c12 [Compound 231, N-(5-(Difluorometh-oxy)pyridin-2-yl)-5-methyl-2-(1-methyl-1H-imidazol-2-yl)-6-(1-methyl-1H-pyrazol-3-yl)pyrrolo[2,1-f][1,2,4]triazin-4-amine] | D (D = 76-100% inhibition) | D* (85-100% activation)
11 | COc1ccnc(Nc2nc(-c3nccn3C)nn3cc(-c4c(F)cccc4OC)c(-c4ccccc4)c23)c1 [Compound 217, 6-(2-Fluoro-6-methoxyphenyl)-N-(4-methoxypyridin-2-yl)-2-(1-methyl-1H-imidazol-2-yl)-5-phenylpyrrolo[2,1-f][1,2,4]triazin-4-amine] | C (C = 46-75% inhibition) | D* (85-100% activation)
12 | COc1cccc(-c2cn3nc(-c4nccn4C)nc(N[C@H]4C[C@H](OC)C4)c3c2-c2ccccc2)c1C [Compound 209, 6-(3-methoxy-2-methylphenyl)-N-((1r,3r)-3-methoxycyclobutyl)-2-(1-methyl-1H-imidazol-2-yl)-5-phenylpyrrolo[2,1-f][1,2,4]triazin-4-amine] | D (D = 76-100% inhibition) | D (85-100% inhibition)
13 | COCC1CCN(c2nc(-c3ccccn3)nn3cc(-c4ccn(C(C)C)n4)c(C)c23)C1 (racemic) [Compound 10, rac 6-(1-Isopropyl-1H-pyrazol-3-yl)-4-(3-(methoxymethyl)pyrrolidin-1-yl)-5-methyl-2-(pyridin-2-yl)pyrrolo[2,1-f][1,2,4]triazine] | A (A = 1-25% inhibition) | 0 (0% inhibition)
14 | CCOc1ccc(Nc2nc(-c3nccn3C)nn3cc(-c4ccn(C)n4)c(C)c23)nc1 [Compound 229, N-(5-Ethoxypyridin-2-yl)-5-methyl-2-(1-methyl-1H-imidazol-2-yl)-6-(1-methyl-1H-pyrazol-3-yl)pyrrolo[2,1-f][1,2,4]triazin-4-amine] | A* (A* = 1-25% activation) | A (1-25% inhibition)
15 | COc1cnc(Nc2nc(-c3nccn3C)nn3cc(-c4ccn(C)n4)c(C)c23)cc1C [Compound 236, N-(5-Methoxy-4-methylpyridin-2-yl)-5-methyl-2-(1-methyl-1H-imidazol-2-yl)-6-(1-methyl-1H-pyrazol-3-yl)pyrrolo[2,1-f][1,2,4]triazin-4-amine] | 0 (0 = 0% inhibition) | D* (85-100% activation)
16 | COc1ccnc(N(C)c2nc(-c3nccn3C)nn3cc(-c4ccn(C)n4)c(C)c23)c1 [Compound 223, N-(4-Methoxypyridin-2-yl)-N,5-dimethyl-2-(1-methyl-1H-imidazol-2-yl)-6-(1-methyl-1H-pyrazol-3-yl)pyrrolo[2,1-f][1,2,4]triazin-4-amine] | B (B = 26-45% inhibition) | A (1-25% inhibition)
17 | COC1CCCN(c2nc(-c3ccccn3)nn3cc(-c4ccn(C(C)C)n4)c(C)c23)C1 (racemic) [Compound 12, rac 6-(1-Isopropyl-1H-pyrazol-3-yl)-4-(3-methoxypiperidin-1-yl)-5-methyl-2-(pyridin-2-yl)pyrrolo[2,1-f][1,2,4]triazine] | 0 (0 = 0% inhibition) | 0 (0% inhibition)
18 | Cc1c(-c2ccn(C)n2)cn2nc(-c3nccn3C)nc(Nc3ccc(C(F)F)cn3)c12 [Compound 234, N-(5-(Difluoromethyl)pyridin-2-yl)-5-methyl-2-(1-methyl-1H-imidazol-2-yl)-6-(1-methyl-1H-pyrazol-3-yl)pyrrolo[2,1-f][1,2,4]triazin-4-amine] | D (D = 76-100% inhibition) | D* (85-100% activation)
19 | Cc1c(-c2ccn(C)n2)cn2nc(-c3nccn3C)nc(Nc3ccc(-n4ccnc4C)cn3)c12 [Compound 243, 5-Methyl-N-(5-(2-methyl-1H-imidazol-1-yl)pyridin-2-yl)-2-(1-methyl-1H-imidazol-2-yl)-6-(1-methyl-1H-pyrazol-3-yl)pyrrolo[2,1-f][1,2,4]triazin-4-amine] | A* (A* = 1-25% activation) | C* (46-84% activation)
20 | CO[C@@H]1C[C@H]1Nc1nc(-c2nccn2C)nn2cc(-c3cccnc3)c(-c3ccccc3)c12 (racemic) [Compound 190, N-((1R,2R)-2-Methoxycyclopropyl)-2-(1-methyl-1H-imidazol-2-yl)-5-phenyl-6-(pyridin-3-yl)pyrrolo[2,1-f][1,2,4]triazin-4-amine] | A (A = 1-25% inhibition) | D* (85-100% activation)
21 | COc1ccnc(Nc2nc(-c3nccn3C)nn3cc(-c4ccn(CCNC(=O)CCCC[C@H]5SC[C@H]6NC(=O)N[C@H]65)n4)c(C)c23)c1 [Compound 215, N-(2-(3-(4-((4-methoxypyridin-2-yl)amino)-5-methyl-2-(1-methyl-1H-imidazol-2-yl)pyrrolo[2,1-f][1,2,4]triazin-6-yl)-1H-pyrazol-1-yl)ethyl)-5-((3aR,4R,6aS)-2-oxohexahydro-1H-thieno[3,4-d]imidazol-4-yl)pentanamide] | C (C = 46-75% inhibition) | A* (1-25% activation)

Source: patent US12459951B2, “Compounds that interact with RAS superfamily proteins for treatment of cancers, inflammatory diseases, rasopathies, and fibrotic disease” (SHY Therapeutics, LLC, priority 2022, dated 2025)
